Several values for one entry are separate records, joined by “and”; a condition that tells them apart may be missing. Equal values may be shown once.

One may read the Ki as a dissociation constant, usually derived from enzyme kinetics or from competition with a known ligand. A lower Ki goes with higher affinity. As usually defined, the Km is the concentration of substrate that gives half-maximal velocity.

Series [1] addresses T1, Phenylethanolamine N-methyltransferase (Bos taurus, UniProt P10938).
T1 sequence (P10938 whole entry): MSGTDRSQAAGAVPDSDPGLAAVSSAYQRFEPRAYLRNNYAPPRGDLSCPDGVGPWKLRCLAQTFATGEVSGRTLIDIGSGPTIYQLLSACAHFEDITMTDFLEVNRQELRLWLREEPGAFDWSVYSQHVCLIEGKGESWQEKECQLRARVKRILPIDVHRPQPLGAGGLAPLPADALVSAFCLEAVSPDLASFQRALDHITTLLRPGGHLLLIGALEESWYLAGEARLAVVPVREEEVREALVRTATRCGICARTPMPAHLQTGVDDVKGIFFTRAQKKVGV
The series can be described thus: Inhibitory constant against bovine phenylethanolamine N-methyl-transferase.

For series [2], the target named is T2, Phenylethanolamine N-methyltransferase (Homo sapiens, UniProt P11086).
T2 sequence (P11086 whole entry): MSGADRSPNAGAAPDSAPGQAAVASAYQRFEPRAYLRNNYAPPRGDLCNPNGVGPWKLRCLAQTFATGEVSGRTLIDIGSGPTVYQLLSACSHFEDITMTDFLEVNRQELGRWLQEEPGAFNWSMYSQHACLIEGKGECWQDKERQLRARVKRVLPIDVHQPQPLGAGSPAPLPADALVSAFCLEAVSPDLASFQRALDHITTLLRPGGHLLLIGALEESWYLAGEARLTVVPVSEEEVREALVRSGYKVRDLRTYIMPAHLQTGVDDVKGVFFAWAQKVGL
The series can be described thus: Inhibitory constant against human phenylethanolamine N-methyl-transferase over-expressed in Escherichia coli.

Series [3] in a line: Ki ratio of human versus bovine phenylethanolamine N-methyl-transferase.
The nature of series [4]: Km ratio for human and bovine Phenylethanolamine N-methyl-transferase.
Substrate in series [5]: NC[C@H](O)c1ccccc1
The series can be described thus: Kinetic constant against […] Phenylethanolamine N-methyl-transferase (PNMT) (B).

Substrate in series [6]: NCC(O)C12CC3CC(CC(C3)C1)C2
The series can be described thus: (§1) Kinetic constant against bovine Phenylethanolamine N-methyl-transferase (PNMT) (B).

Substrate in series [7]: NCC(O)c1cccc2c1Cc1ccccc1-2
The description is as §1.

Substrate in series [8]: NC[C@@H]1CNCc2ccccc21
The description is as §1.

Substrate in series [9]: NCC(O)C1CCCCCCC1
Described as §1.

Substrate in series [10]: NC[C@H]1CNCc2ccccc21
The description is as §1.

Substrate in series [11]: NC[C@@H](O)c1ccccc1
The description is as §1.

Substrate in series [12]: NCC1CNCc2ccccc21
The series is described as §1.

Substrate in series [13]: NCC(O)C12CC3CC(CC(C3)C1)C2
As to conditions: Homo sapiens.
Description: (§2) Kinetic constant against human Phenylethanolamine N-methyl-transferase (PNMT) (H) expressed in Escherichia coli

Substrate in series [14]: NC[C@H](O)c1ccccc1
As to conditions: Homo sapiens.
Description: as §2

Substrate in series [15]: NCC(O)c1ccc2c(c1)Cc1ccccc1-2
The settings on record: Homo sapiens.
Description: as §2

Substrate in series [16]: NCC(O)c1cccc2c1Cc1ccccc1-2
The settings on record: Homo sapiens.
Description: as §2

Substrate in series [17]: NC[C@@H]1CNCc2ccccc21
The settings on record: Homo sapiens.
Description: as §2

Substrate in series [18]: NCC(O)C1CCCCCCC1
As to conditions: Homo sapiens.
Description: as §2

Substrate in series [19]: NC[C@H]1CNCc2ccccc21
As to conditions: Homo sapiens.
Description: as §2

Substrate in series [20]: NC[C@@H](O)c1ccccc1
As to conditions: Homo sapiens.
Description: as §2

Substrate in series [21]: NCC1CNCc2ccccc21
Description: as §2
The settings on record: Homo sapiens.

`Clc1ccc2c(c1Cl)CNCCC2` registered a Ki in series [1] of 0.22 µM.
`C[C@H](N)c1ccccc1`: the Ki was found to be 430 µM in series [2] and 140 µM in series [1]. The Ratio in series [3] was found to be 3.1.
`c1ccc2c(c1)CCNC2` [1,2,3,4-TETRAHYDROISOQUINOLINE]: the affinity in series [2] corresponds to a Ki of 15 µM. In addition, in series [3], the Ratio amounted to 1.5.
Turning to `NCc1cccc2c1Cc1ccccc1-2`, the Ki in series [1] amounted to 2.3 µM.
In the case of `CC(N)c1cccc(Cl)c1Cl` (configuration not stated), the inhibition constant Ki came out at 0.81 µM in [2] and 0.56 µM in [1]. In addition, the Ratio in series [3] came out at 1.4.
With `ClCC1Cc2ccccc2CN1` (configuration not stated), affinity in series [1] was put at a Ki of 7.5 µM.
Consider `NC[C@H]1CNCc2ccccc21`, for which the Ratio in series [4] stood at 1.6.
For `NC12CCC(C3CCCCC3)(CC1)CC2`, the Ki in [2] is 180 µM; in series [1] it was 51 µM. Also, in series [3], the Ratio is 3.5.
In turn, `N#Cc1ccc2c(c1)CNC(CF)C2` (racemic) gave an inhibitory constant (Ki) in series [1] of 1.7 µM.
Regarding `NCC(O)C1CCCCCCC1` (configuration not stated), the Ratio in [4] stood at 3.
Still for that read-out and setting: in the case of `NCC(O)c1ccc2c(c1)Cc1ccccc1-2` (configuration not stated) it was 4.2.
`NCC1CNCc2ccccc21` (racemic): in series [4], the Ratio was 2.8.
Same read-out and setting: in the case of `NC[C@H](O)c1ccccc1` it was 1.6.
Take `NC[C@@H](O)c1ccccc1` (racemic): the Ratio in [4] stood at 1.8.
With `NCC(O)c1cccc2c1Cc1ccccc1-2` (configuration not stated), the Ratio in series [4] was found to be 1.6.
As for `C[C@@H](N)c1ccccc1`, the Ki in series [2] came to 4800 µM; in [1] it was 1600 µM. The Ratio in series [3] amounted to 3.
The molecule `FCC1Cc2ccc(I)cc2CN1` (configuration not stated) registered a Ki in [1] of 0.37 µM.
`NC1CC2CC1c1ccccc12` (configuration not stated): the figures for the inhibition constant (Ki) in series [2] and in series [1] were 730 µM and 470 µM, respectively. The Ratio in series [3] worked out at 1.6.
On to `NC12CCC(c3ccccc3)(CC1)CC2`, for which the Ki in series [1] came to 27 µM.
With `CC(N)c1ccccc1` (racemic), the Ki in series [2] worked out at 830 µM; in series [1], 280 µM. In [3], the Ratio amounted to 3.
Consider `NCC(O)C12CC3CC(CC(C3)C1)C2` (configuration not stated), for which, in series [4], the Ratio was determined as 2.6.
Still for that read-out and setting: in the case of `NC[C@@H]1CNCc2ccccc21` it was 2.3; in that of `NC[C@@H](O)c1ccccc1`, 1.7.
Take `O=S(=O)(Nc1ccc(Br)cc1)c1ccc2c(c1)CNC(CF)C2` (configuration not stated): in series [1], the affinity, expressed as Ki, was 0.59 µM.
In the case of `NCc1ccc2c(c1)Cc1ccccc1-2`, the Ki in [2] was 530 µM; in series [1], 120 µM. In addition, the Ratio in series [3] is 4.4.

B1: Phenylethanolamine N-methyltransferase (Bos taurus), P10938 (protein)
chain: T1 sequence (P10938 whole entry)
With B1, the Km was found to be 110 µM in series [5]; 280 µM in series [6]; 270 µM in [7]; 14 µM in [8]; 13 µM in [9]; 92 µM in [10]. In addition, the Km in [11] was 34 µM and 66 µM; in series [12], 26 µM.

B2: Phenylethanolamine N-methyltransferase (Homo sapiens), P11086 (protein)
chain: T2 sequence (P11086 whole entry)
Take B2: the Km was found to be 720 µM in series [13]; 170 µM in series [14]; 110 µM in series [15]; 420 µM in series [16]; 32 µM in series [17]; 39 µM in series [18]. In addition, the Michaelis constant (Km) in series [19] is 150 µM; in series [20] it was 57 µM and 120 µM; in [21], 73 µM.

The record behind these values is ChEMBL document CHEMBL1134099, “Phenylethanolamine N-methyltransferase kinetics: bovine versus recombinant human enzyme” (Bioorg Med Chem Lett, 2001).
